The source made the active and inactive calls. No cut-off for these calls is given here.
Assays:
[1] = system: MM1.S; assay: Antiproliferative activity against human MM1.S cells assessed as inhibition of cell growth incubated for 72 hrs MTS assay; format: functional, cell-based
[2] = system: MV4-11; assay: Antiproliferative activity against human […] cells assessed as inhibition of cell growth incubated for 72 hrs MTS assay; format: functional, cell-based; settings: MV4-11, 72 h
[3] = target: T1, Protein cereblon/Bromodomain-containing protein 4 (Homo sapiens) (UniProt O60885+Q96SW2); assay: Protac activity at CRBN/BRD4 in human MM1.S cells assessed as induction of BRD4 protein degradation by measuring residual activity at 0.03 uM incubated for 3 hrs by Western blot analysis relative to control; format: cell-based
T1 sequence (Q96SW2 whole entry, looked up, other chains not shown): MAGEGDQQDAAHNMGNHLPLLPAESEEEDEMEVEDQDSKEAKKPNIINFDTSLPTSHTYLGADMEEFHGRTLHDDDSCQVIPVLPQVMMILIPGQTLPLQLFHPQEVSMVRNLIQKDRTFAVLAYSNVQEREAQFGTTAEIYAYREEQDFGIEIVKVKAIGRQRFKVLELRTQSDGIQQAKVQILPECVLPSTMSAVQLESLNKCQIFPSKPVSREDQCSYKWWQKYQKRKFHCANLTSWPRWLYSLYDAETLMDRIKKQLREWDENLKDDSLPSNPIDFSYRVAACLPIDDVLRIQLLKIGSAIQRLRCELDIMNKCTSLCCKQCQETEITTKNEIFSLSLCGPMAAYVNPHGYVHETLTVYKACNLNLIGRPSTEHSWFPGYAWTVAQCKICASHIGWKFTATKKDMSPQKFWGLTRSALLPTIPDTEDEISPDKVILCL

[4] = target: T1, Protein cereblon/Bromodomain-containing protein 4 (Homo sapiens); assay: Protac activity at CRBN/BRD4 in human MM1.S cells assessed as induction of BRD4 protein degradation by measuring residual activity at 0.1 uM incubated for 3 hrs by Western blot analysis relative to control; format: cell-based
[5] = target: T1, Protein cereblon/Bromodomain-containing protein 4 (Homo sapiens); assay: Protac activity at CRBN/BRD4 in human MM1.S cells assessed as induction of BRD4 protein degradation by measuring residual activity at 0.3 uM incubated for 3 hrs by Western blot analysis relative to control; format: cell-based
[6] = target: T1, Protein cereblon/Bromodomain-containing protein 4 (Homo sapiens); assay: Protac activity at CRBN/BRD4 in human MV4-11 cells assessed as induction of BRD4 protein degradation by measuring residual activity at 0.01 uM incubated for 3 hrs by Western blot analysis relative to control; format: cell-based
[7] = target: T1, Protein cereblon/Bromodomain-containing protein 4 (Homo sapiens); assay: Protac activity at CRBN/BRD4 in human MV4-11 cells assessed as induction of BRD4 protein degradation by measuring residual activity at 0.03 uM incubated for 3 hrs by Western blot analysis relative to control; format: cell-based
[8] = target: T1, Protein cereblon/Bromodomain-containing protein 4 (Homo sapiens); assay: Protac activity at CRBN/BRD4 in human MV4-11 cells assessed as induction of BRD4 protein degradation by measuring residual activity at 0.09 uM incubated for 3 hrs by Western blot analysis relative to control; format: cell-based
[9] = target: T1, Protein cereblon/Bromodomain-containing protein 4 (Homo sapiens); assay: Protac activity at CRBN/BRD4 in human MM1.S cells assessed as downregulation of MYC protein expression at […] incubated for 3 hrs by Western blot analysis; format: cell-based
[10] = target: T1, Protein cereblon/Bromodomain-containing protein 4 (Homo sapiens); assay: Protac activity at CRBN/BRD4 in human MM1.S cells assessed as induction of BRD4 protein degradation by measuring residual activity at 0.07 uM incubated for 3 hrs by Western blot analysis relative to control; format: cell-based
[11] = target: T1, Protein cereblon/Bromodomain-containing protein 4 (Homo sapiens); assay: Protac activity at CRBN/BRD4 in human MM1.S cells assessed as induction of BRD4 protein degradation by measuring residual activity at 0.2 uM incubated for 3 hrs by Western blot analysis relative to control; format: cell-based
[12] = target: T1, Protein cereblon/Bromodomain-containing protein 4 (Homo sapiens); assay: Protac activity at CRBN/BRD4 in human MM1.S cells assessed as induction of BRD4 protein degradation by measuring residual activity at 0.6 uM incubated for 3 hrs by Western blot analysis relative to control; format: cell-based
[13] = target: T1, Protein cereblon/Bromodomain-containing protein 4 (Homo sapiens); assay: Protac activity at CRBN/BRD4 in human MM1.S cells assessed as induction of BRD4 protein degradation by measuring residual activity at 0.04 uM incubated for 3 hrs by Western blot analysis relative to control; format: cell-based
[14] = target: T1, Protein cereblon/Bromodomain-containing protein 4 (Homo sapiens); assay: Protac activity at CRBN/BRD4 in human MM1.S cells assessed as induction of BRD4 protein degradation by measuring residual activity at 0.12 uM incubated for 3 hrs by Western blot analysis relative to control; format: cell-based
[15] = target: T1, Protein cereblon/Bromodomain-containing protein 4 (Homo sapiens); assay: Protac activity at CRBN/BRD4 in human MM1.S cells assessed as induction of BRD4 protein degradation by measuring residual activity at 0.36 uM incubated for 3 hrs by Western blot analysis relative to control; format: cell-based
[16] = target: T1, Protein cereblon/Bromodomain-containing protein 4 (Homo sapiens); assay: Protac activity at CRBN/BRD4 in human MV4-11 cells assessed as induction of BRD4 protein degradation by measuring residual activity at 30 nM measured after 6 hrs by Western blot analysis (reference value: 100%); format: cell-based
[17] = target: T1, Protein cereblon/Bromodomain-containing protein 4 (Homo sapiens); assay: Protac activity at CRBN/BRD4 in human MM1.S cells assessed as induction of BRD4 protein degradation by measuring residual activity at 100 nM measured after 6 hrs by Western blot analysis (reference value: 100%); format: cell-based
[18] = target: T1, Protein cereblon/Bromodomain-containing protein 4 (Homo sapiens); assay: Protac activity at CRBN/BRD4 in human MM1.S cells assessed as induction of BRD4 protein degradation by measuring residual activity at 300 nM measured after 6 hrs by Western blot analysis (reference value: 100%); format: cell-based
[19] = target: T1, Protein cereblon/Bromodomain-containing protein 4 (Homo sapiens); assay: Protac activity at CRBN/BRD4 in human MM1.S cells assessed as induction of BRD4 protein degradation by measuring residual activity at 1000 nM measured after 6 hrs by Western blot analysis (reference value: 100%); format: cell-based
[20] = target: T1, Protein cereblon/Bromodomain-containing protein 4 (Homo sapiens); assay: Protac activity at CRBN/BRD4 in human MV4-11 cells assessed as induction of BRD4 protein degradation by measuring residual activity at 10 nM measured after 6 hrs by Western blot analysis (reference value: 100%); format: cell-based
[21] = target: T1, Protein cereblon/Bromodomain-containing protein 4 (Homo sapiens); assay: Protac activity at CRBN/BRD4 in human MV4-11 cells assessed as induction of BRD4 protein degradation by measuring residual activity at 100 nM measured after 6 hrs by Western blot analysis (reference value: 100%); format: cell-based
[22] = target: T1, Protein cereblon/Bromodomain-containing protein 4 (Homo sapiens); assay: Protac activity at CRBN/BRD4 in human MM1.S cells assessed as induction of BRD4 protein degradation by measuring residual activity at 0.06 uM incubated for 3 hrs by Western blot analysis relative to control; format: cell-based
[23] = target: T1, Protein cereblon/Bromodomain-containing protein 4 (Homo sapiens); assay: Protac activity at CRBN/BRD4 in human MM1.S cells assessed as induction of BRD4 protein degradation by measuring residual activity at 0.18 uM incubated for 3 hrs by Western blot analysis relative to control; format: cell-based
[24] = target: T1, Protein cereblon/Bromodomain-containing protein 4 (Homo sapiens); assay: Protac activity at CRBN/BRD4 in human MM1.S cells assessed as induction of BRD4 protein degradation by measuring residual activity at 0.54 uM incubated for 3 hrs by Western blot analysis relative to control; format: cell-based
[25] = target: T1, Protein cereblon/Bromodomain-containing protein 4 (Homo sapiens); assay: Protac activity at CRBN/BRD4 in human MV4-11 cells assessed as induction of BRD4 protein degradation by measuring residual activity at 0.006 uM incubated for 3 hrs by Western blot analysis relative to control; format: cell-based
[26] = target: T1, Protein cereblon/Bromodomain-containing protein 4 (Homo sapiens); assay: Protac activity at CRBN/BRD4 in human MV4-11 cells assessed as induction of BRD4 protein degradation by measuring residual activity at 0.018 uM incubated for 3 hrs by Western blot analysis relative to control; format: cell-based
[27] = target: T1, Protein cereblon/Bromodomain-containing protein 4 (Homo sapiens); assay: Protac activity at CRBN/BRD4 in human MV4-11 cells assessed as induction of BRD4 protein degradation by measuring residual activity at 0.054 uM incubated for 3 hrs by Western blot analysis relative to control; format: cell-based
[28] = target: T1, Protein cereblon/Bromodomain-containing protein 4 (Homo sapiens); assay: Protac activity at CRBN/BRD4 in human MV4-11 cells assessed as induction of BRD4 protein degradation by measuring residual activity at 0.003 uM incubated for 3 hrs by Western blot analysis relative to control; format: cell-based
[29] = target: T1, Protein cereblon/Bromodomain-containing protein 4 (Homo sapiens); assay: Protac activity at CRBN/BRD4 in human MV4-11 cells assessed as induction of BRD4 protein degradation by measuring residual activity at 0.009 uM incubated for 3 hrs by Western blot analysis relative to control; format: cell-based
[30] = target: T1, Protein cereblon/Bromodomain-containing protein 4 (Homo sapiens); assay: Protac activity at CRBN/BRD4 in human MV4-11 cells assessed as induction of BRD4 protein degradation by measuring residual activity at 0.027 uM incubated for 3 hrs by Western blot analysis relative to control; format: cell-based
[31] = target: T1, Protein cereblon/Bromodomain-containing protein 4 (Homo sapiens); assay: Protac activity at CRBN/BRD4 in human MM1.S cells assessed as induction of BRD4 protein degradation by measuring residual activity at 1 uM incubated for 3 hrs by Western blot analysis relative to control; format: cell-based
[32] = target: T1, Protein cereblon/Bromodomain-containing protein 4 (Homo sapiens); assay: Protac activity at CRBN/BRD4 in human MV4-11 cells assessed as induction of BRD4 protein degradation by measuring residual activity at 0.02 uM incubated for 3 hrs by Western blot analysis relative to control; format: cell-based
[33] = target: T1, Protein cereblon/Bromodomain-containing protein 4 (Homo sapiens); assay: Protac activity at CRBN/BRD4 in human MV4-11 cells assessed as induction of BRD4 protein degradation by measuring residual activity at 0.06 uM incubated for 3 hrs by Western blot analysis relative to control; format: cell-based
[34] = target: T1, Protein cereblon/Bromodomain-containing protein 4 (Homo sapiens); assay: Protac activity at CRBN/BRD4 in human MV4-11 cells assessed as induction of BRD4 protein degradation by measuring residual activity at 0.18 uM incubated for 3 hrs by Western blot analysis relative to control; format: cell-based
[35] = Inhibition of TGF-beta induced activation of human MRC5 cells assessed as residual BRD4 protein level at 0.1 uM by Western blot analysis (reference value: 96%); format: functional
[36] = Inhibition of TGF-beta induced activation of human MRC5 cells assessed as residual BRD4 protein level at 0.5 uM by Western blot analysis (reference value: 96%); format: functional

SMILES | IC50 [1] [nM] | IC50 [2] [nM] | Activity [3] [%] | Activity [4] [%] | Activity [5] [%] | Activity [6] [%] | Activity [7] [%] | Activity [8] [%] | Activity [9] | further results
Cc1sc2c(c1C)C(c1ccc(Cl)cc1)=N[C@@H](CC(=O)OC(C)(C)C)c1nnc(C)n1-2 | 62 | 42 | – | – | – | – | – | – | – | –
Cc1sc2c(c1C)C(c1ccc(Cl)cc1)=N[C@@H](CC(=O)NCCNC(=O)c1ccc(COc3cccc4c3CN(C3CCC(=O)NC3=O)C4=O)cc1)c1nnc(C)n1-2 (some centres not stated) | 182 | 18 | 99 | 92 | 89 | 141 | 141 | 120 | – | –
Cc1sc2c(c1C)C(c1ccc(Cl)cc1)=N[C@@H](CC(=O)NCCCNC(=O)c1ccc(COc3cccc4c3C(=O)N(C3CCC(=O)NC3=O)C4=O)cc1)c1nnc(C)n1-2 (some centres not stated) | 302 | 28 | – | – | – | 89 | 66 | 78 | inactive | Activity [10]: 126%; Activity [11]: 108%; Activity [12]: 84%
Cc1sc2c(c1C)C(c1ccc(Cl)cc1)=N[C@@H](CC(=O)NCCCCC(=O)NCc1ccc(CNc3cccc4c3C(=O)N(C3CCC(=O)NC3=O)C4=O)cc1)c1nnc(C)n1-2 (some centres not stated) | 131 | 26 | – | – | – | 103 | 104 | 112 | – | Activity [13]: 121%; Activity [14]: 125%; Activity [15]: 116%
Cc1sc2c(c1C)C(c1ccc(Cl)cc1)=N[C@@H](CC(=O)NCCCCNC(=O)COc1cccc3c1C(=O)N(C1CCC(=O)NC1=O)C3=O)c1nnc(C)n1-2 (some centres not stated) | 141 | 13 | 109 | 87 | 54 | 137 | 132 | 48 | Active | Activity [16]: 14%; Activity [17]: 26%; Activity [18]: 43%; Activity [19]: 40%; Activity [20]: 21%; Activity [21]: 0%
Cc1sc2c(c1C)C(c1ccc(Cl)cc1)=N[C@@H](CC(=O)NCCCCNC(=O)c1ccc(COc3cccc4c3C(=O)N(C3CCC(=O)NC3=O)C4=O)cc1)c1nnc(C)n1-2 (some centres not stated) | 297 | 25 | – | – | – | 126 | 108 | 91 | – | Activity [10]: 117%; Activity [11]: 97%; Activity [12]: 87%
Cc1sc2c(c1C)C(c1ccc(Cl)cc1)=N[C@@H](CC(=O)NCCCCC(=O)NCCOc1cccc3c1C(=O)N(C1CCC(=O)NC1=O)C3=O)c1nnc(C)n1-2 (some centres not stated) | 163 | 18 | – | – | – | – | – | – | – | Activity [22]: 90%; Activity [23]: 111%; Activity [24]: 111%; Activity [25]: 105%; Activity [26]: 105%; Activity [27]: 117%
Cc1sc2c(c1C)C(c1ccc(Cl)cc1)=N[C@@H](CC(=O)NCCCCCNC(=O)c1ccc(COc3cccc4c3C(=O)N(C3CCC(=O)NC3=O)C4=O)cc1)c1nnc(C)n1-2 (some centres not stated) | 110 | 8 | 87 | 86 | 75 | – | – | – | inactive | Activity [28]: 95%; Activity [29]: 96%; Activity [30]: 56%
Cc1sc2c(c1C)C(c1ccc(Cl)cc1)=N[C@@H](CC(=O)NCCNC(=O)c1ccc(COc3cccc4c3C(=O)N(C3CCC(=O)NC3=O)C4=O)cc1)c1nnc(C)n1-2 (some centres not stated) | 544 | 48 | – | 117 | 136 | – | – | – | – | Activity [31]: 123%; Activity [32]: 126%; Activity [33]: 102%; Activity [34]: 82%
COC(=O)c1ccc2c(c1)NC(=O)/C2=C(\Nc1ccc(N(C)C(=O)CN2CCN(C)CC2)cc1)c1ccccc1 [NINTEDANIB] | – | – | – | – | – | – | – | – | – | Activity [35]: 88%; Activity [36]: 71%
